Assay results reported in ChEMBL document CHEMBL3885861, “Open TG-GATES”.

Organism: Rattus norvegicus
Assay: Open TG-GATES - Regimen: Daily Repeat
Format: toxicity, organism-based, Sprague-Dawley
Design: regimen Daily Repeat, gender Male, age 6 weeks
Settings: in vivo, po, 30 mg/kg, route gavage, dose level Middle; for APTT / Bas / Eos / Fbg / Hb / Ht / Lym / MCH / MCHC / MCV / Mono / Neu / PT / Plat / RBC / Ret / WBC: tissue Blood
[1] = 72 h, tissue Kidney, time 3 day
[2] = 72 h, tissue Plasma, time 3 day

For `NC(=O)N/N=C/c1ccc([N+](=O)[O-])o1` [NITROFURAZONE], the TERMINAL_BW (72 h, time 3 day) was 221 g, the APTT (72 h, time 3 day) was 15.2 s and the Bas (72 h, time 3 day) was 0%. For the same compound, the Eos (72 h, time 3 day) was 0.8%, the Fbg (72 h, time 3 day) was 285 mg/dL and the Hb (72 h, time 3 day) was 12.7 g/dL. It also gave a Ht (72 h, time 3 day) of 38.3%, a Lym (72 h, time 3 day) of 78.8% and an MCH (72 h, time 3 day) of 21.6 pg. The MCHC (72 h, time 3 day) was 33.2%, the MCV (72 h, time 3 day) was 65 fL and the Mono (72 h, time 3 day) was 3.2%. For the same compound, the Neu (72 h, time 3 day) was 16.6%, the PT (72 h, time 3 day) was 14.2 s and the Plat (72 h, time 3 day) was 119.4 x10_4/uL. It also gave an RBC (72 h, time 3 day) of 589.8 x10_4/ul, a Ret (72 h, time 3 day) of 8.5% and a WBC (72 h, time 3 day) of 86.5 x10_2/uL. The KIDNEY_L [1] was 1 g, the KIDNEY_R [1] was 0.9 g and the KIDNEY_TOTAL [1] was 1.9 g. It also gave an LIVER (72 h, tissue Liver, time 3 day) of 11.3 g, an A/G [2] of 0.9 and an ALP [2] of 1653.2 IU/L. For the same compound, the ALT [2] was 46.2 IU/L, the AST [2] was 70 IU/L and the BUN [2] was 15.4 mg/dL. It also gave a CRE [2] of 0.2 mg/dL, a Ca [2] of 11.4 mg/dL and a Cl [2] of 104.2 meq/L. It also gave a DBIL [2] of 0.016 mg/dL, a GLC [2] of 182 mg/dL and an IP [2] of 8 mg/dL. It also gave a K [2] of 4.4 meq/L, an LDH [2] of 113.2 IU/L and a Na [2] of 140.6 meq/L. For the same compound, the PL [2] was 164.4 mg/dL, the RALB [2] was 2.5 g/dL and the TBIL [2] was 0.048 mg/dL. For the same compound, the TC [2] was 91.4 mg/dL, the TG [2] was 98.6 mg/dL and the TP [2] was 5.5 g/dL. It also gave a gamma-GTP [2] of 1 IU/L, a TERMINAL_BW ([…], time 7 day) of 259.6 g and a TERMINAL_BW ([…], time 14 day) of 325.5 g. It also gave a TERMINAL_BW ([…], time 28 day) of 410.1 g, an APTT ([…], time 7 day) of 16.5 s and a Bas ([…], time 7 day) of 0%. The Eos ([…], time 7 day) was 1%, the Fbg ([…], time 7 day) was 267 mg/dL and the Hb ([…], time 7 day) was 13.2 g/dL. The Ht ([…], time 7 day) was 39.5%, the Lym ([…], time 7 day) was 76% and the MCH ([…], time 7 day) was 21.1 pg. The MCHC ([…], time 7 day) was 33.5%, the MCV ([…], time 7 day) was 63.1 fL and the Mono ([…], time 7 day) was 2.6%. It also gave a Neu ([…], time 7 day) of 20.2%, a PT ([…], time 7 day) of 14.3 s and a Plat ([…], time 7 day) of 120.3 x10_4/uL. It also gave an RBC ([…], time 7 day) of 625.8 x10_4/ul, a Ret ([…], time 7 day) of 7.3% and a WBC ([…], time 7 day) of 103.6 x10_2/uL. It also gave an APTT ([…], time 14 day) of 14.3 s, a Bas ([…], time 14 day) of 0% and an Eos ([…], time 14 day) of 0.8%. For the same compound, the Fbg ([…], time 14 day) was 308.8 mg/dL, the Hb ([…], time 14 day) was 13.5 g/dL and the Ht ([…], time 14 day) was 41.1%. It also gave a Lym ([…], time 14 day) of 81.8%, an MCH ([…], time 14 day) of 20.8 pg and an MCHC ([…], time 14 day) of 32.9%. It also gave an MCV ([…], time 14 day) of 63.2 fL, a Mono ([…], time 14 day) of 2.4% and a Neu ([…], time 14 day) of 14.2%. The PT ([…], time 14 day) was 14.4 s, the Plat ([…], time 14 day) was 117.9 x10_4/uL and the RBC ([…], time 14 day) was 650.8 x10_4/ul. The Ret ([…], time 14 day) was 6.1%, the WBC ([…], time 14 day) was 78.6 x10_2/uL and the APTT ([…], time 28 day) was 15.7 s. The Bas ([…], time 28 day) was 0.2%, the Eos ([…], time 28 day) was 1% and the Fbg ([…], time 28 day) was 294 mg/dL. For the same compound, the Hb ([…], time 28 day) was 14.3 g/dL and the Ht ([…], time 28 day) was 42.2%.
